Laboratory results taken from PubChem BioAssay AID1549 (Sanford-Burnham Center for Chemical Genomics, 2009).
Active and inactive are the calls of the source. No rule for the calls is given here.

These compounds were tested against Influenza A virus M2 proton channel (A/TW/4845/1999 H1N1) (assay: M2 proton channel binding, NMR based, influenza A virus H1N1 strain (AID 1549)). Details: NMR binding screen, M2 protein.
For `COC(=O)C1[C@H]2C[C@H]3c4[nH]c5ccccc5c4CCN3C[C@@H]2CC[C@@H]1O` (some centres undefined), the Kd was > 4 mM (inactive).
`Cc1cc(C)n(-c2nc(C)nc(N)n2)n1` was tested, and the Kd was > 4 mM (inactive).
`CC(=O)c1cc2c(cc1O)OC(C)(C)C=C2` was tested, and the Kd was > 4 mM (inactive).
`CN1CCC(NC(=O)Cc2c(F)cccc2Cl)CC1` was tested, and the Kd was > 4 mM (inactive).
For `C/C=C(/C)C(=O)O[C@H]1CC[C@@]2(C)[C@@H]3CC[C@H]4[C@]5(O)C[C@H](O)[C@@]6(O)[C@@H](CN7C[C@@H](C)CC[C@H]7[C@@]6(C)O)[C@]5(O)C[C@@]42OC13O`, the Kd was > 4 mM (inactive).
In the case of `COC(=O)c1scc(C)c1N`, the Kd is reported as > 4 mM (inactive).
With `C=Cc1c(C)c2cc3[nH]c(cc4nc(cc5nc(cc1[nH]2)C(C)=C5CCC(=O)O)C(CCC(=O)O)=C4C)c(C)c3C=C` the Kd was > 4 mM (inactive).
With `CCOC(=O)c1c(C)cc(O)c(C=O)c1O` the Kd was > 4 mM (inactive).
`Cc1cc(NC(=O)Cc2c(F)cccc2Cl)no1` was tested, and the Kd was > 4 mM (inactive).
With `NC(=O)CC[C@H](N)C(=O)O` the Kd was > 4 mM (inactive).
For `O=C(O)C1(S(=O)(=O)c2ccccc2)CC1`, the Kd was > 4 mM (inactive).
`NC(=O)Cc1nc2ccccc2[nH]1` was tested, and the Kd was > 4 mM (inactive).
For `CC1C[C@H]2CC(=O)[C@H]3CCCN4CCC[C@H]2[C@]34C1` (some centres undefined), the Kd was > 4 mM (inactive).
In the case of `COc1ccc(-c2nc3nc(C)cc(C)n3n2)cc1`, the Kd is reported as > 4 mM (inactive).
For `COCC(=O)NC1CC(C)(C)NC(C)(C)C1`, the Kd was > 4 mM (inactive).
With `CC1(C)C2C[C@@H](O)[C@]3(C)C(CC[C@@]4(C)[C@H](c5ccoc5)OC(=O)[C@H]5O[C@]543)[C@@]2(C)[C@@H](O)C[C@H]1O` (some centres undefined) the Kd was > 4 mM (inactive).
In the case of `O=C(O)C(O)C(O)C(O)C(O)C(=O)O` (centres undefined), the Kd is reported as > 4 mM (inactive).
For `COc1ccc(Cc2nccc3cc(OC)c(OC)cc23)cc1OC`, the Kd was > 4 mM (inactive).
With `NC(C(=O)O)C(O)C(=O)O` (centres undefined) the Kd was > 4 mM (inactive).
`CC1(C)C(=O)[C@@H]2C[C@@]3(O)C4=CC(=O)O[C@@H](c5ccoc5)[C@]4(C)CCC3C(C)(C2=O)[C@H]1CC(=O)O` (some centres undefined) was tested, and the Kd was > 4 mM (inactive).
In the case of `Cc1nn(-c2ccccc2)nc1C(=O)O`, the Kd is reported as > 4 mM (inactive).
`O=C1CCNc2cc3ccccc3cc21` was tested, and the Kd was > 4 mM (inactive).
With `O=C(O)C1COc2ccccc2C1` (centres undefined) the Kd was > 4 mM (inactive).
In the case of `Nc1cccc(CC(=S)N2CCOCC2)c1`, the Kd is reported as > 4 mM (inactive).
With `Nc1[nH]c(=S)ncc1S(=O)(=O)c1ccccc1` the Kd was > 4 mM (inactive).
In the case of `C=C(C)CSc1nc2nc(C)cc(C)n2n1`, the Kd is reported as > 4 mM (inactive).
In the case of `Cn1c(=O)c2[nH]cnc2n(C)c1=O`, the Kd is reported as > 4 mM (inactive).
In the case of `COc1ccc2c(c1OC)C(=O)N(c1ncn[nH]1)C2`, the Kd is reported as > 4 mM (inactive).
With `CC(=O)O[C@H]1CC[C@@]2(C)C(=CC(=O)C3C4CCC(C(C)CCCC(C)C)[C@@]4(C)CCC32)C1` (some centres undefined) the Kd was > 4 mM (inactive).
`Cc1ccn(S(=O)(=O)c2ccc(C(C)(C)C)cc2)n1` was tested, and the Kd was > 4 mM (inactive).
In the case of `CC(=O)c1cccc(NC(=O)Nc2c(C)nn(C)c2C)c1`, the Kd is reported as > 4 mM (inactive).
`Nc1c(/C=C2\C=Nc3ccccc32)c(=O)nc2scnn12` was tested, and the Kd was > 4 mM (inactive).
With `NC(=O)CCN1C(=O)c2ccccc2C1=O` the Kd was > 4 mM (inactive).
With `NC(=O)c1cc2c(n(-c3ccccc3)c1=O)CCCC2=O` the Kd was > 4 mM (inactive).
`COCc1cc(=O)oc2cc(N)ccc12` was tested, and the Kd was > 4 mM (inactive).
For `S=C(Cc1cccnc1)N1CCOCC1`, the Kd was > 4 mM (inactive).
In the case of `Nc1ccc(OCc2ccccc2)cc1`, the Kd is reported as > 4 mM (inactive).
For `CCOCC(=O)NCc1n[nH]c(=O)c2ccccc12`, the Kd was > 4 mM (inactive).
`CN1CCC2(CC1)CC1CC3C=CC1(CN2)O3` (centres undefined) was tested, and the Kd was > 4 mM (inactive).
With `COc1ccc(C2CC(=O)NN2)cc1OC1CCCC1` (centres undefined) the Kd was > 4 mM (inactive).
`O=C1NC(=O)C(=Cc2cccs2)C(=O)N1` was tested, and the Kd was > 4 mM (inactive).
For `CC(C)c1c(O)ccc2c1CCC1[C@@](C)(C=O)CCC[C@]21C` (some centres undefined), the Kd was > 4 mM (inactive).
In the case of `CNS(=O)(=O)c1ccc2[nH]c(=O)[nH]c2c1`, the Kd is reported as > 4 mM (inactive).
With `S=c1[nH]cnc2sccc12` the Kd was > 4 mM (inactive).
In the case of `O=C(Nc1cccnc1)N1CCOCC1`, the Kd is reported as > 4 mM (inactive).
With `Cc1nnc(NCc2cccnc2)[nH]c1=O` the Kd was > 4 mM (inactive).
With `O=C(O)c1ccc2sccc2c1` the Kd was > 4 mM (inactive).
`O=c1c2ccccc2nc2n1CCC2O` (centres undefined) was tested, and the Kd was > 4 mM (inactive).
`CN1CCN(Cc2cccnc2)CC1` was tested, and the Kd was > 4 mM (inactive).
In the case of `COc1cc2c(cc1OC)[C@@]13CCN4CC5=CCOC6CC(=O)N2C1[C@H]6[C@H]5C[C@H]43` (some centres undefined), the Kd is reported as > 4 mM (inactive).
In the case of `CC1CCC2(OC1)OC1CC3C4CCC5C[C@@H](O)CCC5(C)C4=CCC3(C)C1[C@@H]2C` (some centres undefined), the Kd is reported as > 4 mM (inactive).
In the case of `Cc1cc(OC(=O)c2c(C)cc(O)cc2O)cc(O)c1C(=O)O`, the Kd is reported as > 4 mM (inactive).
`Cc1noc(-c2ccccc2)c1CO` was tested, and the Kd was > 4 mM (inactive).
In the case of `O=C(O)/C=C/C=C/c1ccccc1`, the Kd is reported as > 4 mM (inactive).
`CC(=O)OC/C=C(\C)CC/C=C(\C)CC/C=C(\C)CC/C=C(\C)CC/C=C(\C)CC/C=C(\C)CC/C=C(\C)CC/C=C(\C)CCC=C(C)C` was tested, and the Kd was > 4 mM (inactive).
For `O=C1CSC(c2ccc3c(c2)OCO3)N1` (centres undefined), the Kd was > 4 mM (inactive).
With `NC(=O)c1cc(Cl)c(C(N)=O)cc1Cl` the Kd was > 4 mM (inactive).
With `O=C(CNC(=O)c1ccc(F)cc1)NC1=NCCS1` the Kd was > 4 mM (inactive).
With `COc1ccc([C@H]2COc3c(ccc(O)c3OC)C2)c(OC)c1O` the Kd was > 4 mM (inactive).
With `CC(=O)C1CC[C@H]2C3CC[C@H]4C[C@H](O)CC[C@]4(C)C3CC[C@]12C` (some centres undefined) the Kd was > 4 mM (inactive).
In the case of `O=c1[nH]cc(COCc2ccccc2)c(=O)[nH]1`, the Kd is reported as > 4 mM (inactive).
`COc1c(C(C)C)oc2cc3oc(=O)ccc3cc12` was tested, and the Kd was > 4 mM (inactive).
With `COc1cccc(NC(=O)c2ocnc2C)c1` the Kd was > 4 mM (inactive).
For `c1cc(C(N2CCOCC2)N2CCOCC2)ccn1`, the Kd was > 4 mM (inactive).
In the case of `Nc1c(S(=O)(=O)c2ccccc2)csc1C(=O)O`, the Kd is reported as > 4 mM (inactive).
With `O=C(O)CC1C(=O)NCCN1Cc1ccccc1` (centres undefined) the Kd was > 4 mM (inactive).
`COc1ccc(-c2c(C)n([O-])c(C)c(C)[n+]2=O)cc1` was tested, and the Kd was > 4 mM (inactive).
With `Clc1ccc2c(N3CCNCC3)ccnc2c1` the Kd was > 4 mM (inactive).
For `C=CCSc1[nH]c(=O)cc(C)c1C(N)=O`, the Kd was > 4 mM (inactive).
With `O=C(NN1CCOCC1)c1cccs1` the Kd was > 4 mM (inactive).
With `Cc1cccc(NC(=O)NC(N)=O)c1` the Kd was > 4 mM (inactive).
With `Cc1cc(Oc2ccccc2)nc(N)n1` the Kd was > 4 mM (inactive).
With `COc1c2c(c(CC=C(C)C)c3oc(=O)c(-c4ccc(O)cc4)c(O)c13)OC(C)(C)C=C2` the Kd was > 4 mM (inactive).
`O=C(O)c1cccc2c1OCCO2` was tested, and the Kd was > 4 mM (inactive).
With `O=C(O)c1ccc2nccnc2c1` the Kd was > 4 mM (inactive).
For `N=c1n(N)c2ccccc2n1CCO`, the Kd was > 4 mM (inactive).
For `Cc1ccccc1NC(=O)N1CCOCC1`, the Kd was > 4 mM (inactive).
With `CCOC(=O)c1cnc2cc(C)nn2c1C` the Kd was > 4 mM (inactive).
With `O=C(NC1=NCCS1)c1ccc(Cl)s1` the Kd was > 4 mM (inactive).
For `Nc1nnc(SCc2cccnc2)s1`, the Kd was > 4 mM (inactive).
In the case of `Cc1cc2c(nn1)CCc1nonc1-2`, the Kd is reported as > 4 mM (inactive).
In the case of `O=C1CSC(=Nc2cc(Cl)ccc2Cl)N1`, the Kd is reported as > 4 mM (inactive).
In the case of `O=C1CSC(=NC(=O)c2ccccc2)N1`, the Kd is reported as > 4 mM (inactive).
With `C[C@@H]1C(=O)O[C@H]2[C@H]1CC[C@@]1(C)C=CC(=O)[C@@]3(C)O[C@@]213` the Kd was > 4 mM (inactive).
For `COC(=O)[C@@]1(C)CCC[C@]2(C)c3ccc(O)c(C(C)C)c3CCC12` (some centres undefined), the Kd was > 4 mM (inactive).
`Cc1nc2ccc(NC(=O)N3CCOCC3)cc2s1` was tested, and the Kd was > 4 mM (inactive).
In the case of `Brc1ccc(-c2nc(-c3ccncc3)no2)o1`, the Kd is reported as > 4 mM (inactive).
With `COC(=O)C[C@@H]1C2(C)C(=O)[C@@H](CC3C2CC[C@]2(C)C3CC(=O)O[C@H]2c2ccoc2)[C@H](OC(C)=O)C1(C)C` (some centres undefined) the Kd was > 4 mM (inactive).
In the case of `C=CCCCCCCCCCCCc1ccco1`, the Kd is reported as > 4 mM (inactive).
In the case of `c1nnc2c3c4c(sc3ncn12)CCCC4`, the Kd is reported as > 4 mM (inactive).
For `COc1cc(O)cc(/C=C/c2ccccc2)c1`, the Kd was > 4 mM (inactive).
In the case of `Cc1occc1C(=O)Nc1nnc(-c2ccncc2)s1`, the Kd is reported as > 4 mM (inactive).
For `O=c1ccc2nc3ccccc3c(=O)n2[nH]1`, the Kd was > 4 mM (inactive).
For `Nc1ccc2nsnc2c1`, the Kd was > 4 mM (inactive).
With `Cc1cc(C)c2ccc[n+]([O-])c2c1O` the Kd was > 4 mM (inactive).
For `COC(=O)c1cccc(N)c1`, the Kd was > 4 mM (inactive).
`O=S(=O)(Nc1cccc2cn[nH]c12)c1ccc(F)cc1` was tested, and the Kd was > 4 mM (inactive).
In the case of `CCOc1ccc(N2C(=O)CCC2=O)cc1`, the Kd is reported as > 4 mM (inactive).
`NC(=O)CSc1nnc2ccc(-c3ccccn3)nn12` was tested, and the Kd was > 4 mM (inactive).
`COc1c2c(cc3c1OCO3)CCN(C)C2` was tested, and the Kd was > 4 mM (inactive).
`CC(C)n1c(-c2ccncc2)n[nH]c1=S` was tested, and the Kd was > 4 mM (inactive).
In the case of `[O-][n+]1c2ccccc2[n+]([O-])c2cc(O)ccc21`, the Kd is reported as > 4 mM (inactive).
In the case of `Cc1ncoc1C(=O)Nc1ncc([N+](=O)[O-])s1`, the Kd is reported as > 4 mM (inactive).
With `O=C(O)c1snnc1-c1ccccc1` the Kd was > 4 mM (inactive).
For `CCn1c(-c2ccccc2)n[nH]c1=S`, the Kd was > 4 mM (inactive).
For `COc1ccc(N2CC(=O)NC2=O)cc1`, the Kd was > 4 mM (inactive).
`CC(=O)O[C@H]1CCC2(C)C3=C(CCC2C1(C)C)[C@@]1(C)CC[C@@H](C(C)CCC=C(C)C)[C@]1(C)CC3` (some centres undefined) was tested, and the Kd was > 4 mM (inactive).
For `OCc1csc(-c2cccs2)n1`, the Kd was > 4 mM (inactive).
For `O=C(O)C1CC(=O)N(Cc2cccs2)C1` (centres undefined), the Kd was > 4 mM (inactive).
In the case of `O=C(Nc1nnc(-c2ccco2)o1)c1ccc([N+](=O)[O-])o1`, the Kd is reported as > 4 mM (inactive).
`CNCc1ccccc1` was tested, and the Kd was > 4 mM (inactive).
With `COc1cccc(-c2nc3ccc(O)cc3c(=O)o2)c1` the Kd was > 4 mM (inactive).
With `Cc1ncc(C[n+]2csc3ccccc32)c(N)n1` the Kd was > 4 mM (inactive).
For `O=c1[nH]nnc2sc3c(c12)CCCC3`, the Kd was > 4 mM (inactive).
